Values after ≈ are worked out from the molar mass of the structure shown.
Legend:
[1] = system: M. tb (strain H37Rv); assay: MIC90 against replicating M.tb (MABA); format: cell-based, Mycobacterium tuberculosis; conditions: Mycobacterium tuberculosis, aerobic (replicating) conditions, 90% inhibition of growth
[2] = system: M. tb (strain H37Rv); assay: MIC90 against non-replicating M.tb (LORA); format: cell-based, Mycobacterium tuberculosis; conditions: Mycobacterium tuberculosis, H37RV, read-out: MIC90 LORA
Experimental: In these assays, 1 is a potent inhibitor, with MICs of 0.08 and 0.12 µg/mL, respectively. Replacement of the naphthalene C-unit of 1 with various pyridyls produced analogues of considerably lower lipophilicity, with clogP values ranging from 6.89 down to 2.98.

[3] = in vitro; conditions: human, microsomes
[4] = in vitro; conditions: mouse, microsomes
[5] = target: hERG potassium channel (Homo sapiens, UniProt Q12809); assay: Inhibition of hERG potassium current (patch clamp electrophysiology); conditions: for IC50: read-out: hERG IC50, manual patch clamp, 5-concentration dose-response
[6] = mouse, in vivo

Sequence of hERG potassium channel (Q12809 whole entry): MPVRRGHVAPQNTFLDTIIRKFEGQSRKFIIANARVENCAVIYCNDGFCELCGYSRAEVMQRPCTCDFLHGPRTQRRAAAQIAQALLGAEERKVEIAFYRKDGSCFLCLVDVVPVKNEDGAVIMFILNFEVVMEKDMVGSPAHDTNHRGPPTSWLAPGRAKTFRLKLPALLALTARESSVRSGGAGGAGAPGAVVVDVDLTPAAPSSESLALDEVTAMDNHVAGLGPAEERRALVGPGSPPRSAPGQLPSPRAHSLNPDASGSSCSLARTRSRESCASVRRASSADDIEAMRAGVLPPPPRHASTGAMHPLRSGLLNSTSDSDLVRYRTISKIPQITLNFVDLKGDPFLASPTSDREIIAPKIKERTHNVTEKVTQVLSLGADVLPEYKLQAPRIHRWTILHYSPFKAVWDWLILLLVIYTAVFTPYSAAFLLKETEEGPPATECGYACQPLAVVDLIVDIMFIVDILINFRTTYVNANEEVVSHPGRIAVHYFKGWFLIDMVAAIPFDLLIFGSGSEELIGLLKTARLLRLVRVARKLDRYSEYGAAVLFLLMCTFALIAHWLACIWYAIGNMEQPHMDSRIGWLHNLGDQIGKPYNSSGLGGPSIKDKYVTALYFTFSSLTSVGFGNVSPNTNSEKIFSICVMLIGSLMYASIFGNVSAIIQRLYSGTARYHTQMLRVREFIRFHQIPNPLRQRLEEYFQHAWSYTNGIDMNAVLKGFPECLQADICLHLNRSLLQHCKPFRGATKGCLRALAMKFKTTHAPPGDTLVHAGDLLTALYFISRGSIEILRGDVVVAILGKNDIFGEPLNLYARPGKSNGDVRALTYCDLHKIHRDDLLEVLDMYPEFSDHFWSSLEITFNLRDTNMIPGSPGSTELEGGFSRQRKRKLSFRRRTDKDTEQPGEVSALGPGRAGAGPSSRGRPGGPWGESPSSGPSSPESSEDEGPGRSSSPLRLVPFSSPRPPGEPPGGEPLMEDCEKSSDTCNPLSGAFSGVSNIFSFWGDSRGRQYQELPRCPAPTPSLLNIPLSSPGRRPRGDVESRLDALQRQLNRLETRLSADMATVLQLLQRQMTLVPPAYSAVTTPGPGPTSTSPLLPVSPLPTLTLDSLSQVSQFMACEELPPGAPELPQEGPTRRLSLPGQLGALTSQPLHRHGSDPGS

SMILES: COc1cccc(C(c2cc3cc(Br)ccc3nc2OC)C(O)(CCN(C)C)c2cncc(C)c2)c1OC (centres unmarked) [Compound 28]
- MIC90 [1]: 0.3 µg/mL (≈ 0.517 µM)
- MIC90 [2]: 0.57 µg/mL (≈ 0.982 µM)

SMILES: COc1cccc(C(c2cc3cc(C#N)ccc3nc2OC)C(O)(CCN(C)C)c2cncc(C)c2)c1OC (centres unmarked) [Compound 29]
- MIC90 [1]: 4.2 µg/mL (≈ 7.98 µM)
- MIC90 [2]: 3.8 µg/mL (≈ 7.22 µM)

SMILES: COc1cccc(C(c2cc3cc(Br)ccc3nc2OC)C(O)(CCN(C)C)c2cncc(C)c2)c1F (centres unmarked) [Compound 30]
- MIC90 [1]: 0.16 µg/mL (≈ 0.281 µM)
- MIC90 [2]: 0.2 µg/mL (≈ 0.352 µM)

SMILES: COc1cccc(C(c2cc3cc(C#N)ccc3nc2OC)C(O)(CCN(C)C)c2cncc(C)c2)c1F (centres unmarked) [Compound 31]
- MIC90 [1]: 3.3 µg/mL (≈ 6.41 µM)
- MIC90 [2]: 2.5 µg/mL (≈ 4.86 µM)

SMILES: COc1cccc(C(c2cc3cc(Br)ccc3nc2OC)C(O)(CCN(C)C)c2cc(C)cnc2C)c1F (centres unmarked) [Compound 32]
- MIC90 [1]: 0.07 µg/mL (≈ 0.12 µM)
- MIC90 [2]: 0.23 µg/mL (≈ 0.395 µM)

SMILES: COc1cccc(C(c2cc3cc(Br)ccc3nc2OC)C(O)(CCN(C)C)c2cnc(C)c(C)c2)c1OC (centres unmarked) [Compound 34]
- MIC90 [1]: 0.07 µg/mL (≈ 0.118 µM)
- MIC90 [2]: 0.14 µg/mL (≈ 0.235 µM)

SMILES: COc1cccc(C(c2cc3cc(Br)ccc3nc2OC)C(O)(CCN(C)C)c2cnc(C)c(C)c2)c1F (centres unmarked) [Compound 35]
- MIC90 [1]: 0.31 µg/mL (≈ 0.532 µM)
- MIC90 [2]: 0.29 µg/mL (≈ 0.498 µM)

SMILES: COc1cccc(C(c2cc3cc(C#N)ccc3nc2OC)C(O)(CCN(C)C)c2cnc(C)c(C)c2)c1F (centres unmarked) [Compound 36]
- MIC90 [1]: 2.4 µg/mL (≈ 4.54 µM)
- MIC90 [2]: 3.3 µg/mL (≈ 6.24 µM)

SMILES: COc1cccc(C(c2cc3cc(Br)ccc3nc2OC)C(O)(CCN(C)C)c2cnc(C)cc2C)c1F (centres unmarked) [Compound 37]
- MIC90 [1]: 0.53 µg/mL (≈ 0.91 µM)
- MIC90 [2]: 0.29 µg/mL (≈ 0.498 µM)

SMILES: COc1nc2ccc(C#N)cc2cc1C(c1cccc2c1OCO2)C(O)(CCN(C)C)c1cccnc1OC (centres unmarked) [Compound 42]
- MIC90 [1]: 2.1 µg/mL (≈ 3.99 µM)

SMILES: COc1ccc(C(O)(CCN(C)C)C(c2cc3cc(Br)ccc3nc2OC)c2cccc(OC)c2OC)cn1 (centres unmarked) [Compound 43]
- MIC90 [1]: 0.28 µg/mL (≈ 0.469 µM)
- MIC90 [2]: 0.54 µg/mL (≈ 0.905 µM)

SMILES: COc1ccc(C(O)(CCN(C)C)C(c2cc3cc(C#N)ccc3nc2OC)c2cccc(OC)c2OC)cn1 (centres unmarked) [Compound 44]
- MIC90 [1]: 2.1 µg/mL (≈ 3.87 µM)

SMILES: COc1ccc(C(O)(CCN(C)C)C(c2cc3cc(Br)ccc3nc2OC)c2cccc(OC)c2F)cn1 (centres unmarked) [Compound 45]
- MIC90 [1]: 0.12 µg/mL (≈ 0.205 µM)
- MIC90 [2]: 0.08 µg/mL (≈ 0.137 µM)

SMILES: COc1cnc(OC)c(C(O)(CCN(C)C)C(c2cc3cc(Br)ccc3nc2OC)c2cccc(OC)c2F)c1 (centres unmarked) [Compound 46]
- MIC90 [1]: 0.09 µg/mL (≈ 0.146 µM)
- MIC90 [2]: 0.04 µg/mL (≈ 0.0651 µM)
- microsomal CLint [3]: 7 µL/min/mg
- microsomal CLint [4]: 53 µL/min/mg
- IC50 [5]: 2.9 µM

SMILES: COc1cc(C(O)(CCN(C)C)C(c2cc3cc(Br)ccc3nc2OC)c2cccc(OC)c2F)cnc1OC (centres unmarked) [Compound 47]
- MIC90 [1]: 0.07 µg/mL (≈ 0.114 µM)
- MIC90 [2]: 0.11 µg/mL (≈ 0.179 µM)

SMILES: COc1cc(C(O)(CCN(C)C)C(c2cc3cc(Br)ccc3nc2OC)c2ccnc(OC)c2OC)c(OC)nc1OC (centres unmarked) [Compound 49]
- MIC90 [1]: 0.57 µg/mL (≈ 0.867 µM)
- MIC90 [2]: 1.4 µg/mL (≈ 2.13 µM)
- AUC: exposure, AUCinf [6]: 9130 ng·h/mL
- IV Cl: IV clearance ([6]; iv): 10 mL/min/kg
- Vz: IV apparent volume of distribution during terminal phase ([6]; iv): 12 L/kg
- F: oral bioavailability ([6]; po): 52%
- microsomal CLint [3]: 5 µL/min/mg
- microsomal CLint [4]: 7 µL/min/mg
- IC50 [5]: 2.7 µM

SMILES: COc1cccc(C(c2cc3cc(Br)ccc3nc2OC)C(O)(CCN(C)C)c2ccncc2C)c1F (centres unmarked) [Compound 50]
- MIC90 [1]: 1 µg/mL (≈ 1.76 µM)
- MIC90 [2]: 1.1 µg/mL (≈ 1.93 µM)

SMILES: COc1cccc(C(c2cc3cc(Br)ccc3nc2OC)C(O)(CCN(C)C)c2ccnc(C)c2)c1F (centres unmarked) [Compound 51]
- MIC90 [1]: 0.47 µg/mL (≈ 0.827 µM)
- MIC90 [2]: 0.58 µg/mL (≈ 1.02 µM)

SMILES: COc1cccc(C(c2cc3cc(C#N)ccc3nc2OC)C(O)(CCN(C)C)c2ccnc(C)c2)c1F (centres unmarked) [Compound 52]
- MIC90 [1]: > 5 µg/mL
- MIC90 [2]: 3.8 µg/mL (≈ 7.38 µM)

SMILES: COc1nc2ccc(Br)cc2cc1C(c1cccc(C)c1)C(O)(CCN(C)C)c1cc(C)nc(C)c1 (centres unmarked) [Compound 53]
- MIC90 [1]: 0.11 µg/mL (≈ 0.201 µM)
- MIC90 [2]: 0.49 µg/mL (≈ 0.893 µM)

SMILES: COc1cccc(C(c2cc3cc(Br)ccc3nc2OC)C(O)(CCN(C)C)c2cc(C)nc(C)c2)c1F (centres unmarked) [Compound 54]
- MIC90 [1]: 0.11 µg/mL (≈ 0.189 µM)
- MIC90 [2]: 0.3 µg/mL (≈ 0.515 µM)

SMILES: CCc1cc(C(O)(CCN(C)C)C(c2cc3cc(Br)ccc3nc2OC)c2cccc(OC)c2F)cc(CC)n1 (centres unmarked) [Compound 58]
- MIC90 [1]: 0.03 µg/mL (≈ 0.0491 µM)
- MIC90 [2]: 0.21 µg/mL (≈ 0.344 µM)
- microsomal CLint [3]: 8 µL/min/mg
- microsomal CLint [4]: 20 µL/min/mg
- hERG % inhibition at 3 µM ([5]; 3 µM, manual or (less accurate) QPatch assay): 63%/3

SMILES: CCc1cc(C(O)(CCN(C)C)C(c2cc3cc(C#N)ccc3nc2OC)c2cccc(OC)c2F)cc(CC)n1 (centres unmarked) [Compound 59]
- MIC90 [1]: 0.19 µg/mL (≈ 0.341 µM)
- MIC90 [2]: 0.28 µg/mL (≈ 0.503 µM)
- microsomal CLint [3]: 10 µL/min/mg
- microsomal CLint [4]: 27 µL/min/mg
- hERG % inhibition at 1 µM ([5]; 1 µM, manual assay): 48%/1

SMILES: COc1cc(C(O)(CCN(C)C)C(c2cc3cc(Br)ccc3nc2OC)c2cccc(OC)c2F)c(OC)cn1 (centres unmarked) [Compound 60]
- MIC90 [1]: 0.11 µg/mL (≈ 0.179 µM)
- MIC90 [2]: 0.12 µg/mL (≈ 0.195 µM)
- microsomal CLint [3]: 7 µL/min/mg
- microsomal CLint [4]: 25 µL/min/mg
- IC50 [5]: 1.7 µM

— publication PMC6467542 (Bioorganic & Medicinal Chemistry, 2019)
